Assays:
[1] = biological target: T1, Serine/threonine-protein kinase TAO1 (Homo sapiens) (UniProt Q7L7X3); test: Inhibition of human recombinant TAO1 at 500 nM in presence of ATP by radiometric assay relative to control
T1 sequence (whole entry): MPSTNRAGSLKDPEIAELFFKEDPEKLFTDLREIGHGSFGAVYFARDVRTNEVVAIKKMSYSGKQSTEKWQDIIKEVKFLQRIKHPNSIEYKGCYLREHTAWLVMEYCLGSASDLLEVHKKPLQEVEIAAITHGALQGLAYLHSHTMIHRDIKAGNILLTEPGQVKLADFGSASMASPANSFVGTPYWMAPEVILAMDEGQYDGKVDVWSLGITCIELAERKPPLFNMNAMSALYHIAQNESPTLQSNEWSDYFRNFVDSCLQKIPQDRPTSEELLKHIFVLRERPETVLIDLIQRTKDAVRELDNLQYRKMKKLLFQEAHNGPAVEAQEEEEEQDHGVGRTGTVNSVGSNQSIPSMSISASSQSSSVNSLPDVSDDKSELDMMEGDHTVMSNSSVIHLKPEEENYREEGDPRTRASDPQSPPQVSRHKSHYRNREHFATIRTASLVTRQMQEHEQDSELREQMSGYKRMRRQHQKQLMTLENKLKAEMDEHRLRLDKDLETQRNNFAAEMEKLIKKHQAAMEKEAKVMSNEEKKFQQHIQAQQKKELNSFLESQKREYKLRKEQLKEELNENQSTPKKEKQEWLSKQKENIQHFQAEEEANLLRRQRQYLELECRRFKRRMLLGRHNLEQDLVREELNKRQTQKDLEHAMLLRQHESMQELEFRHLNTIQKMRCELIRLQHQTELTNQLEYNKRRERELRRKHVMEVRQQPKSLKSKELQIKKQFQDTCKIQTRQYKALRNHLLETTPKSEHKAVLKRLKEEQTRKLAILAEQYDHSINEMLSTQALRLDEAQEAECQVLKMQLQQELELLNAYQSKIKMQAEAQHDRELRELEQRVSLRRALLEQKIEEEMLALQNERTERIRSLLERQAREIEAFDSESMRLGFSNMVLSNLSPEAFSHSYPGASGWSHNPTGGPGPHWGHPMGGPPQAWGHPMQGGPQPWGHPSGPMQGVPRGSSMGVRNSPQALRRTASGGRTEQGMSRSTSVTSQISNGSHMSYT

[2] = biological target: Serine/threonine-protein kinase MARK2 (Homo sapiens) (UniProt Q7KZI7); test: Inhibition of human recombinant MARK2 at 500 nM related to control ULK1
[3] = biological target: TRAF2 and NCK-interacting protein kinase (Homo sapiens) (UniProt Q9UKE5); test: Inhibition of human recombinant TNIK at 500 nM in presence of ATP by radiometric assay relative to control
[4] = biological target: Dual specificity mitogen-activated protein kinase kinase 1 (Homo sapiens) (UniProt Q02750); test: Inhibition of human recombinant MAP2K1 at 15 nM related to control ULK1
[5] = biological target: T2, NUAK family SNF1-like kinase 1 (Homo sapiens) (UniProt O60285); test: Inhibition of human recombinant NuaK1 at 40 nM in presence of ATP by radiometric assay relative to control
T2 sequence (whole entry): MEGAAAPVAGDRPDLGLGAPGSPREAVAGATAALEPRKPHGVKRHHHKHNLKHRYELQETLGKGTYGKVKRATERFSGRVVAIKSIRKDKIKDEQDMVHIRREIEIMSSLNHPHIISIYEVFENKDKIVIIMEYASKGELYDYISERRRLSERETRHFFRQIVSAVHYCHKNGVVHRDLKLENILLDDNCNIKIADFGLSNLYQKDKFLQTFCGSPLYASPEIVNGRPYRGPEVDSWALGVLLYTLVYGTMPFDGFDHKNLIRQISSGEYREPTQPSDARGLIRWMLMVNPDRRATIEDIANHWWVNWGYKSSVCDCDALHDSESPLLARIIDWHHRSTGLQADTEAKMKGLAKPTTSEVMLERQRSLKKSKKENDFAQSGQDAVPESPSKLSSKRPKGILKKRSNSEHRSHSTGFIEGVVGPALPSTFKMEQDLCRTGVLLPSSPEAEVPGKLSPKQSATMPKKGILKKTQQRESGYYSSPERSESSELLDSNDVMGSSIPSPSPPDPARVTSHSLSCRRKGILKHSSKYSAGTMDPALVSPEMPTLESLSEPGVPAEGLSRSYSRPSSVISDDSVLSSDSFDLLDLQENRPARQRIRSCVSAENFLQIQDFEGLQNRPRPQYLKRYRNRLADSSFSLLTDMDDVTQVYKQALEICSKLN

[6] = biological target: Serine/threonine-protein kinase NIM1 (Homo sapiens) (UniProt Q8IY84); test: Inhibition of human recombinant NIM1 at 40 nM related to control ULK1
[7] = biological target: T3, Serine/threonine-protein kinase TAO3 (Homo sapiens) (UniProt Q9H2K8); test: Inhibition of human recombinant TAO3 at 40 nM in presence of ATP by radiometric assay relative to control
T3 sequence (whole entry): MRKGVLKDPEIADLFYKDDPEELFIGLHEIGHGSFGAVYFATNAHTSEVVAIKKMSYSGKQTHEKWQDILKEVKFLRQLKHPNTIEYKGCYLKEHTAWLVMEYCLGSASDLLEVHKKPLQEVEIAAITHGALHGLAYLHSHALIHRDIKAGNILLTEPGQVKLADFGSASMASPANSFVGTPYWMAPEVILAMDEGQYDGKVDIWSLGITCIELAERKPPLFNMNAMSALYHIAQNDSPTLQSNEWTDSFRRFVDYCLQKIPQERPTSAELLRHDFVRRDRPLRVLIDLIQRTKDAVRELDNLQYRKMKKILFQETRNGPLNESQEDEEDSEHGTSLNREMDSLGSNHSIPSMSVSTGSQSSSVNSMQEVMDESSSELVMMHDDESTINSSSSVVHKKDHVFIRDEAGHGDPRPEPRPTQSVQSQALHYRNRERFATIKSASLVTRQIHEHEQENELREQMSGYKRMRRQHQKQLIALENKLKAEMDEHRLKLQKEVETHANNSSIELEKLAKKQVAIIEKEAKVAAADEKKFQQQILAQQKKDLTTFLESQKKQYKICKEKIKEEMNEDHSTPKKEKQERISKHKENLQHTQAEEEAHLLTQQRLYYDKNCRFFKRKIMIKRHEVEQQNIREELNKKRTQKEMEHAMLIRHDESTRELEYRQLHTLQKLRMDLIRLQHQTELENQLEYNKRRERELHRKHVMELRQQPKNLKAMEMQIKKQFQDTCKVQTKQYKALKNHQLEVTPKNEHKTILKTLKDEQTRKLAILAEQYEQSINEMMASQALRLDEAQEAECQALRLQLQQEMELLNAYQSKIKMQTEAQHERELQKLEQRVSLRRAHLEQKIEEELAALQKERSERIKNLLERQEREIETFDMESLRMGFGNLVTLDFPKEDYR

[8] = biological target: cAMP-dependent protein kinase catalytic subunit alpha (Homo sapiens) (UniProt P17612); test: Inhibition of human recombinant PKACalpha at 40 nM related to control ULK1

Sequence of TRAF2 and NCK-interacting protein kinase (Homo sapiens) (Q9UKE5 whole entry, looked up): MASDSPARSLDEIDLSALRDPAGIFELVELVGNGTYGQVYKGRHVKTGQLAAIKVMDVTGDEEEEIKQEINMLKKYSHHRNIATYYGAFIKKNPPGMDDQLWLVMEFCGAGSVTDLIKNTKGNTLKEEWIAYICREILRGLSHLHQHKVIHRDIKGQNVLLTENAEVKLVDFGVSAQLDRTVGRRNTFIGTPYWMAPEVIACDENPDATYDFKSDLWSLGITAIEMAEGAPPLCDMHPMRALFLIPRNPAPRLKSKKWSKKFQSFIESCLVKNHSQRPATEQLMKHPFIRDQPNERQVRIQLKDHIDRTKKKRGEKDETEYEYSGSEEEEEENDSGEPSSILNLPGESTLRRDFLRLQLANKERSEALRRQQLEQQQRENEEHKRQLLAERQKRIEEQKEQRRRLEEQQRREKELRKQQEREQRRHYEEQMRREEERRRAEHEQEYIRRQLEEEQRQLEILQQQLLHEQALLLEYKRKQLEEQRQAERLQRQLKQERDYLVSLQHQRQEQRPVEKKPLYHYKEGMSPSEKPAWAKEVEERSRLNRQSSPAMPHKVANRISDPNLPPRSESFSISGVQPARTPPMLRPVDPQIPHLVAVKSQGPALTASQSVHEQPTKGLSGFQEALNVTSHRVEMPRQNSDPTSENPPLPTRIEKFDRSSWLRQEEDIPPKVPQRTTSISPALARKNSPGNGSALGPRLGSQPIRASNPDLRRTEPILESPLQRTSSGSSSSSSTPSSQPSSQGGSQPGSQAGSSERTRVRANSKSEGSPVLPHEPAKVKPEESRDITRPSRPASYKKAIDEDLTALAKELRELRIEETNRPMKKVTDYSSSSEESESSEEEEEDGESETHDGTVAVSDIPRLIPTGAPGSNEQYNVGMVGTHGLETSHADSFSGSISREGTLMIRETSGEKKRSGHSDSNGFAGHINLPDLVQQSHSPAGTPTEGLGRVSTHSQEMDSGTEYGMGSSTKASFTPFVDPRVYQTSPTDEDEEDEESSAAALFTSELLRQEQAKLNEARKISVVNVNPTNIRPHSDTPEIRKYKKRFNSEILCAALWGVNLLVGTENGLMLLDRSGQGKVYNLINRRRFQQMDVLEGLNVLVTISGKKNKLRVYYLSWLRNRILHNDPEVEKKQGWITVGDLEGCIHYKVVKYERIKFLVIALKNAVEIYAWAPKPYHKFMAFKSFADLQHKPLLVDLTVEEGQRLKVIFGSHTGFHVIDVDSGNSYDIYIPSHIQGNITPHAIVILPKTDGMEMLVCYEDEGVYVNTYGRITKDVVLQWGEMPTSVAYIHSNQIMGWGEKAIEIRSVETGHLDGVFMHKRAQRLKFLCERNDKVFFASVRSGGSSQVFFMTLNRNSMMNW
Sequence of Serine/threonine-protein kinase MARK2 (Homo sapiens) (Q7KZI7 whole entry): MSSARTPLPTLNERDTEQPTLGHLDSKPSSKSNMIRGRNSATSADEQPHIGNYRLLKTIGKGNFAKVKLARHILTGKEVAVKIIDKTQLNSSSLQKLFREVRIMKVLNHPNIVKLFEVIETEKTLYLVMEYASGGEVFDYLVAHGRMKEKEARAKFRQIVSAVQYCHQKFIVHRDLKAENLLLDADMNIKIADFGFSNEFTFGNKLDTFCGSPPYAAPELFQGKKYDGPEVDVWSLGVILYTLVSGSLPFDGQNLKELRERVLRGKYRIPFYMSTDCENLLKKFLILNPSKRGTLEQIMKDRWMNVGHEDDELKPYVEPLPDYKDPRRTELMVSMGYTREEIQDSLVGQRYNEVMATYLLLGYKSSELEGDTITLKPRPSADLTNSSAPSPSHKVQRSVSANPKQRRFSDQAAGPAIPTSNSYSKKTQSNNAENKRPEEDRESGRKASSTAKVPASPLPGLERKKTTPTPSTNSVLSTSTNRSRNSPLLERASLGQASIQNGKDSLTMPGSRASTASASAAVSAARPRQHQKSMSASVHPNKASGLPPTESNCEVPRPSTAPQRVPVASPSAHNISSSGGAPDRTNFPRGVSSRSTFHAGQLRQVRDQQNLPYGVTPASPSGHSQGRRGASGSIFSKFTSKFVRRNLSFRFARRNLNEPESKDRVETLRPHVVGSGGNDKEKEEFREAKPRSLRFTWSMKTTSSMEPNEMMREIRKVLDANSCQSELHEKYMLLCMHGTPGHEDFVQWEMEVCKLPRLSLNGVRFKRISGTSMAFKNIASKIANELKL
Sequence of Serine/threonine-protein kinase NIM1 (Homo sapiens) (Q8IY84 whole entry): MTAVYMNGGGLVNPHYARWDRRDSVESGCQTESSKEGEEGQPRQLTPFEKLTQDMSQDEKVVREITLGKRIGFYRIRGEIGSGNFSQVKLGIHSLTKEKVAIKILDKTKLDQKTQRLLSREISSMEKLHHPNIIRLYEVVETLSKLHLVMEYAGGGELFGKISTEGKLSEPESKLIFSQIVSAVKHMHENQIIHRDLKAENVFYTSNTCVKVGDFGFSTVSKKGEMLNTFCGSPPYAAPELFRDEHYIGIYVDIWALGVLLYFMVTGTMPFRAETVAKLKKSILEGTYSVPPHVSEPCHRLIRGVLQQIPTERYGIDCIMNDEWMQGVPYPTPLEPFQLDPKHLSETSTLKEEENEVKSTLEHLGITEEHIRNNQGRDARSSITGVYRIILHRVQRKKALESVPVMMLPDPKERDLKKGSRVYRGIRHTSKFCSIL
Sequence of Dual specificity mitogen-activated protein kinase kinase 1 (Homo sapiens) (Q02750 whole entry): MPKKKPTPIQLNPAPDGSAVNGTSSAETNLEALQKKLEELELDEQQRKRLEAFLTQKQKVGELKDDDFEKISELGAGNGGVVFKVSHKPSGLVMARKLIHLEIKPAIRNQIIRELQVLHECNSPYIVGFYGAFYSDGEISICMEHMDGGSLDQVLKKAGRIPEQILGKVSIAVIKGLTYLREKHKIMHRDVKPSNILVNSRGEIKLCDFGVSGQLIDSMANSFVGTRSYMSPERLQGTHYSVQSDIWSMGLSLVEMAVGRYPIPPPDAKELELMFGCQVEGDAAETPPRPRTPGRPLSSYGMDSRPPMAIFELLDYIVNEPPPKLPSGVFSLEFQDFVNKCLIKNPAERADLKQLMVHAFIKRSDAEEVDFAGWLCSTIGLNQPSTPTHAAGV

An inhibition [1] of 6%, a fold change (FC) [2] of 0.68 and an inhibition [3] of 4% were found for `CNC(=O)c1ccccc1Oc1nc(Nc2cc(OC)c(OC)c(OC)c2)ncc1Br` in this work.

A fold change (FC) [4] of 0.08 was found for `CC(C)[C@H](NC(=O)c1cc(-c2cnn3cc(-c4ccc(OCCN5CCCCC5)cc4)cnc23)cs1)C(F)(F)F` in this work.

An inhibition [5] of 5%, a fold change (FC) [6] of 0 and an inhibition [7] of 0% were found for `O=C(N[C@@H](C1CC1)C(F)(F)F)c1cc(-c2cnn3cc(-c4ccc(F)cc4)cnc23)cs1` in this work. For the same molecule, the fold change (FC) [8] was 0.

From ChEMBL document CHEMBL5653631, “A Potent and Selective ULK1 Inhibitor Suppresses Autophagy and Sensitizes Cancer Cells to Nutrient Stress” (iScience, 2018)
